According to paper PMC9382865, “Infigratinib Reduces Fibroblast Growth Factor 23 (FGF23) and Increases Blood Phosphate in Tumor‐Induced Osteomalacia” (JBMR Plus, 2022):

Assays:
[1] = 24-hour pharmacokinetics after the first oral dose of infigratinib 75 mg in patients with TIO; format: in vivo; conditions: human, blood
Description: (§1) Serial sampling was performed every 2 hours for 24 hours after the first dose of infigratinib to evaluate the pharmacokinetics and pharmacodynamics of the drug. Subsequently, laboratory tests were performed every 2 weeks. Routine blood and urine chemistries were performed at the NIH Clinical Center Department of Laboratory Medicine during inpatient stays and outpatient visits. Laboratory testing in the intervening weeks were performed either at the NIH or at a local laboratory, depending on the patient's proximity to the NIH. Infigratinib levels were also measured at weeks 4 and 8.
(§2) Biochemical testing included measurement of routine chemistries, 1,25D (radioimmunoassay; Mayo Medical Laboratories, Rochester, MN, USA), cFGF23 (ELISA; Immutopics International, San Clemente, CA, USA; Mayo Medical Laboratories), iFGF23 (ELISA; Immutopics International), C‐telopeptide (CTx) (electrochemiluminescence immunoassay; Mayo Medical Laboratories), and procollagen 1 intact N‐terminal (P1NP) (competitive radioimmunoassay; Mayo Medical Laboratories). Infigratinib levels were measured by Q2 Lab Solutions (Durham, NC, USA).

[2] = system: FGF23 (intact and C-terminal), blood phosphate; assay: Biochemical response (iFGF23, cFGF23, phosphate, 1,25D, TRP) in patients with TIO on daily infigratinib; format: in vivo, human
Description: Subjects received oral daily doses of infigratinib for up to 24 weeks. The initial dose of 75 mg daily was based on studies investigating infigratinib use in subjects with cholangiocarcinoma, as well as our clinical experience with two NIH patients with TIO who had previously participated in an infigratinib trial outside of the NIH (ClinicalTrials.gov NCT02160041). After 8 weeks on therapy, dose escalation and de‐escalation of drug was determined by investigators based on tolerability and changes in C‐terminal FGF23 (cFGF23) levels. Planned dose escalation would occur by 25 mg every 8 weeks to a maximum dose of 125 mg/d if cFGF23 levels were not suppressed to <100 relative units (RU)/mL. De‐escalations or interruptions would occur if a subject experienced an adverse event, including hyperphosphatemia. A cFGF23 assay that measures both the active intact FGF23 molecule and inactivated C‐terminal fragments was used for titration purposes rather than an intact FGF23 (iFGF23) assay because the cFGF23 assay was the only commercially available option at the time.
as §1, §2
Tubular reabsorption of phosphate (TRP) was calculated using the following equation: 100 × [1 – (urine phosphate × serum creatinine)/(serum phosphate × urine creatinine)] and maximum renal tubular phosphate reabsorption in mass per unit volume of glomerular filtrate (TmP/GFR) was determined using the following equations: for TRP ≤0.86 (86%): TmP∕GFR = TRP × phosphate; for TRP >0.86 (86%): TmP∕GFR = (0.3 × TRP)/[1 − (0.8 × TRP)] ×phosphate.^( [20] ^)
At the end of week 24, patients still on therapy were admitted again to the NIH Clinical Center to monitor off‐drug effects with daily blood and urine sampling × 7 days. Subjects with persistent biochemical remission after 7 days would be monitored as outpatients off therapy for 12 additional weeks. Subjects with normal phosphate levels on infigratinib but without persistent biochemical response on cessation were considered for an optional extension phase.

[3] = system: phosphaturic mesenchymal tumors; assay: 18F-FDG-PET/CT and 68Ga-DOTATATE-PET/CT of tumors before and after infigratinib; format: in vivo, human
Description: In patients with identifiable tumors, recent prior imaging was obtained from the patient record. The imaging studies that best characterized their tumor prior to therapy (18Flouride‐Fluorodeoxyglucose (FDG) DG‐PET/CT and/or 68Gallium (68Ga)‐DOTATATE‐PET/CT) were repeated at the 24‐week visit, if clinically indicated, and the changes were assessed.

[4] = Strength assessments and patient-reported quality-of-life outcomes; format: in vivo, human; design: RAND – Emotional well-being: scale not given here; conditions: for Grip Strength Evaluation: baseline 15+/-12; for PROMIS – Mobility Item Bank T score (higher = better): baseline 38+/-7; for RAND – Role limitations due to physical health problems: baseline 44+/-13; for RAND SF-36 Physical Functioning (0-100, higher better): baseline 46+/-19; for RAND – Energy/Fatigue: baseline 50+/-29; for RAND – Bodily Pain: baseline 52+/-29; for PROMIS – Fatigue 8A Short Form T score (higher = increased fatigue): baseline 55+/-8; for PROMIS – Pain Interference 8A short form T score (higher = increased pain interference): baseline 56+/-4; for RAND – Social functioning: baseline 59+/-37; for RAND – General health perceptions: baseline 60+/-11; for RAND – Emotional well-being: baseline 67+/-15; for RAND – Role limitations due to emotional health problems: baseline 67 +/-27; for Pinch Test: baseline 6.8 +/-4; for 5x Sit to stand: baseline 15+/-7; for DASH score (0 no disability, 100 severe disability): baseline 16+/-5
Description: (§3) Safety, tolerability, and efficacy were evaluated during in‐person visits every 4 weeks at the NIH Clinical Center and included a physical exam, ophthalmologic exam, patient‐reported outcome measures and strength assessments. The Disabilities of Arm Shoulder and Hand Outcome Measurement (DASH) questionnaire was used to measure self‐reported upper extremity symptoms and disability. The RAND 36‐item Short Form Health Survey (RAND SF‐36) version 1.0 was performed to determine effects of infigratinib on health‐related quality of life over the duration of the study. Patient Reported Outcomes Measurement Information System (PROMIS) item banks for fatigue (PROMIS SF v1.0‐Fatigue 8a), mobility (PROMIS Bank v2.0 – Mobility), and pain interference (PROMIS SF v1.1‐Pain Interference 8a) were also performed. Strength assessments included a Six‐Minute Walk Test, Grip Strength assessment, Pinch Strength assessment, and Five Time Sit to Stand. The Grip Strength assessment was performed on the dominant hand using a JAMAR Hand Dynamometer (Sammons Preston, Inc., Bolingbrook, IL, USA) and three successive trials were averaged to determine the final score. The Pinch Strength assessment was performed using the Exacta Hydraulic Pinch Gauge (North Coast Medical, Inc., Morgan Hill, CA, USA) with three successive trials averaged for the final score.

[5] = Safety and adverse events (CTCAE) in the phase 2 TIO trial; format: in vivo, human
Description: as §3
The primary objective of the study was to induce a persistent metabolic remission, defined by normalization of FGF23 and phosphate after study drug discontinuation. Secondary objectives included evaluating the effects of infigratinib on mineral homeostasis, radiographic appearance of PMTs, quality of life, and muscle strength. Key biochemical end points included changes in iFGF23, cFGF23, phosphate, 1,25D, TRP, and TmP/GFR. Because the study closed prematurely with only four patients enrolled, results were primarily descriptive. Adverse events were summarized by frequency and percentage. Continuous variables were presented as mean ± standard deviation (SD). Linear mixed effects models were fitted to the repeated measures data collected from the 24‐hour serial sampling and the first 8 weeks of therapy when the patients were on the same infigratinib dose (75 mg daily) because, after this point, dose reductions and interruptions occurred. Analysis was performed using SAS (version 9.4; SAS Institute, Inc., Cary, NC, USA). Graphs were produced using GraphPad Prism 8 (GraphPad Software, Inc., La Jolla, CA, USA).

[6] = design: method as in earlier work; conditions: subjects with cholangiocarcinoma; no reactions above grade 2; cited from earlier work
[7] = system: PMT metastases; design: method as in PMID 32905668; conditions: one patient with metastatic TIO, while on therapy, cited from earlier work
[8] = Subject 1, single oral dose 75 mg
[9] = Subject 2, single oral dose 75 mg
[10] = Subject 3, single oral dose 75 mg
[11] = Subject 4, single oral dose 75 mg
[12] = Subject 2, 75 mg then 50 mg daily, up to 24 weeks

AUC [1, 8]: 89.7 ng·h/mL
Cmax [1, 8]: 28.6 ng/mL
Tmax [1, 8]: 2 h
half-life [1, 8]: 2.73 h
AUC [1, 9]: 1090 ng·h/mL
Cmax [1, 9]: 176 ng/mL
Tmax [1, 9]: 2 h
half-life [1, 9]: 7.75 h
AUC [1, 10]: 133 ng·h/mL
Cmax [1, 10]: 23.8 ng/mL
Tmax [1, 10]: 4 h
half-life [1, 10]: 3.02 h
AUC [1, 11]: 764 ng·h/mL
Cmax [1, 11]: 67.9 ng/mL
Tmax [1, 11]: 6 h
half-life [1, 11]: 7.62 h
Structure (SMILES): CCN1CCN(c2ccc(Nc3cc(N(C)C(=O)Nc4c(Cl)c(OC)cc(OC)c4Cl)ncn3)cc2)CC1 [Infigratinib]
TRP change ([2]; 75 mg daily, by week 8): increased in all patients
cFGF23 decrease from baseline [2, 12]: 89%
iFGF23 decrease from baseline [2, 12]: 95%
Reduction in cFGF23 ([2]; Subject 2, first 24 hours after first 75 mg dose): 82%
Biochemical response while on therapy ([2]; Subject 2, neither intact nor C-terminal FGF23 ever normalized): significant biochemical response
iFGF23 nadir ([2]; Subject 2, normal <54 pg/mL): 171 pg/mL
cFGF23 nadir ([2]; Subject 2, normal <180 RU/mL): 241 RU/mL
Metabolic response while on therapy ([2]; Subjects 1, 3 and 4, reversed rapidly with drug cessation): complete metabolic response
Biochemical response ([2]; all patients, 75 mg daily, week 8): partial biochemical response
Phosphate levels change ([2]; first 24 hours after first 75 mg dose, p < 0.0001, none exceeded lower limit of normal at hour 24): increased
iFGF23 change ([2]; first 24 hours after first 75 mg dose, p < 0.001): decreased significantly
Enduring metabolic remission (persistently normal FGF23 and blood phosphate following drug discontinuation), primary objective ([2]; four TIO patients, up to 24 weeks daily oral): no subject achieved the primary objective
Tumor size change after treatment ([3]; Subjects 1 and 2, after 6 months): without appreciable change in size
Reduction of SUVmax of the PMTs after treatment ([3]; all studies except Subject 1 68Ga scans): greater than 40%
Grip Strength Evaluation ([4]; 8 Weeks, N=4, mean+/-SD): 18+/-9 kilograms
PROMIS – Mobility Item Bank T score (higher = better) ([4]; 8 Weeks): 39+/-5
RAND – Role limitations due to physical health problems ([4]; 8 Weeks): 68+/-31
RAND SF-36 Physical Functioning (0-100, higher better) ([4]; 8 Weeks): 51+/-17
RAND – Energy/Fatigue ([4]; 8 Weeks): 53+/-22
RAND – Bodily Pain ([4]; 8 Weeks): 63+/-37
PROMIS – Fatigue 8A Short Form T score (higher = increased fatigue) ([4]; 8 Weeks): 53+/-8
PROMIS – Pain Interference 8A short form T score (higher = increased pain interference) ([4]; 8 Weeks): 52+/-6
RAND – Social functioning ([4]; 8 Weeks): 78+/-21
RAND – General health perceptions ([4]; 8 Weeks): 73+/-17
RAND – Emotional well-being ([4]; 8 Weeks): 72+/-13
RAND – Role limitations due to emotional health problems ([4]; 8 Weeks): 75+/-32
Pinch Test ([4]; 8 Weeks, mean+/-SD): 6.8 +/-1 kilograms
5x Sit to stand ([4]; 8 Weeks, mean+/-SD): 14 ± 1 s
DASH score (0 no disability, 100 severe disability) ([4]; 8 Weeks, mean+/-SD): 14+/-5
6 Minute Walk Test ([4]; 24 Weeks, N=4, mean+/-SD, baseline 474+/-250, normal range 391-751): 474+/-250 496+/-173 meters
PROMIS – Mobility Item Bank T score (higher = better) ([4]; 24 Weeks): 39+/-3
RAND – Role limitations due to physical health problems ([4]; 24 Weeks): 25+/-50
RAND SF-36 Physical Functioning (0-100, higher better) ([4]; 24 Weeks): 40+/-6
RAND – Energy/Fatigue ([4]; 24 Weeks): 49+/-33
RAND – Bodily Pain ([4]; 24 Weeks): 36+/-2.5
PROMIS – Fatigue 8A Short Form T score (higher = increased fatigue) ([4]; 24 Weeks): 52+/-9
PROMIS – Pain Interference 8A short form T score (higher = increased pain interference) ([4]; 24 Weeks): 53+/-9
RAND – Social functioning ([4]; 24 Weeks): 72+/-33
RAND – General health perceptions ([4]; 24 Weeks): 71+/-18
RAND – Emotional well-being ([4]; 24 Weeks): 62+/-10
RAND – Role limitations due to emotional health problems ([4]; 24 Weeks): 41.7+/-50
Pinch Test ([4]; 24 Weeks, mean+/-SD): 7+/-1 kilograms
5x Sit to stand ([4]; 24 Weeks, mean+/-SD): 11 ± 1 s
Grip Strength Evaluation ([4]; 24 Weeks, mean+/-SD): 16+/-1 kilograms
DASH score (0 no disability, 100 severe disability) ([4]; 24 Weeks, mean+/-SD): 12+/-8
Serious adverse events ([5]; 4 subjects): No subjects experienced serious adverse events
Total Number of Adverse Events ([5]; 4 subjects): 111
Grade 3 AEs (CTCAE) ([5]; both improved following drug interruption): increased alanine aminotransferase and decreased neutrophil count in subject 2
Corneal keratitis with blurred vision ([5]; continuous daily dosing, drug interruptions required in two patients): all patients developed corneal keratitis with blurred vision
Time to normalization of vision after infigratinib discontinuation ([5]; in vivo): ≤ 60 days
Number of AEs considered possibly, probably, or definitely related to infigratinib ([5]; of 111 AEs): 87
Corneal scarring, share of subjects ([5]; subjects who developed ocular keratitis on infigratinib): 50%
Blurred vision, share of patients [6]: 21%
Dry eye, including keratitis, share of patients [6]: 44%
FGF23 change [7]: significant decreases in FGF23
Tumor burden ([7]; reversed with cessation): profound reduction in tumor burden
